Experimental data as given in patent publication US10391095B2, “DNA-PK inhibitors” (Vertex Pharmaceuticals Incorporated, priority 2012, dated 2019).

These compounds were tested against DNA-PK (Homo sapiens, UniProt P78527) (assay: DNA-PK inhibition assay (radiometric, 33P-ATP)). Settings: 100 μM ATP, competitive tight-binding fit.
Assay type: biochemical
Description: Compounds were screened for their ability to inhibit DNA-PK kinase using a standard radiometric assay. Briefly, in this kinase assay the transfer of the terminal ^33P-phosphate in ^33P-ATP to a peptide substrate is interrogated. The assay was carried out in 384-well plates to a final volume of 50 μL per well containing approximately 6 nM DNA-PK, 50 mM HEPES (pH 7.5), 10 mM MgCl2, 25 mM NaCl, 0.01% BSA, 1 mM DTT, 10 μg/mL sheared double-stranded DNA (obtained from Sigma), 0.8 mg/mL DNA-PK peptide ([…] obtained from American Peptide), and 100 μM ATP. Accordingly, compounds of the invention were dissolved in DMSO to make 10 mM initial stock solutions. Serial dilutions in DMSO were then made to obtain the final solutions for the assay. A 0.75 μL aliquot of DMSO or inhibitor in DMSO was added to each well, followed by the addition of ATP substrate solution containing ^33P-ATP (obtained from Perkin Elmer). The reaction was started by the addition of DNA-PK, peptide and ds-DNA. After 45 min, the reaction was quenched with 25 μL of 5% phosphoric acid. The reaction mixture was transferred to MultiScreen HTS 384-well PH plates (obtained from Millipore), allowed to bind for one hour, and washed three times with 1% phosphoric acid. Following the addition of 50 μL of Ultima Gold™ high efficiency scintillant (obtained from Perkin Elmer), the samples were counted in a Packard TopCount NXT Microplate Scintillation and Luminescence Counter (Packard BioScience). The Ki values were calculated using Microsoft Excel Solver macros to fit the data to the kinetic model for competitive tight-binding inhibition.

Row | Ki [nM] | Compound
1 | < 30 | COc1ccccc1[C@H](C)CNc1cc(-c2ccc(NC(C)CO)nc2)ncn1 (single isomer, unassigned) [Compound 126]
2 | < 30 | COc1ccccc1[C@H](C)CNc1cc(-c2cnc3c(cnn3CC(O)CO)c2)ncn1 (single isomer, unassigned) [Compound 149]
3 | < 30 | COc1ccccc1[C@H](C)CNc1cc(-c2ccnc(NCC(O)CO)c2)ncn1 (single isomer, unassigned) [Compound 208]
4 | < 30 | CNC(=O)c1ccc([C@H](C)CNc2cc(-c3ccc(NC(C)CO)nc3)ncn2)c(OC)c1 (single isomer, unassigned) [Compound 357]
5 | < 30 | CNC(=O)c1ccc([C@H](C)CNc2cc(-c3ccc(NC4CCOC4)nc3)ncn2)c(OC)c1 (single isomer, unassigned) [Compound 391]
6 | < 30 | C[C@H](CNc1cc(-c2cnc3c(cnn3CC(O)CO)c2)ncn1)c1ccnc2c1OCC2 (single isomer, unassigned) [Compound 436]
7 | < 30 | CC(O)Cn1ncc2cc(-c3cc(NC[C@@H](C)c4ccnc5c4OCCO5)ncn3)cnc21 (single isomer, unassigned) [Compound 503]
8 | < 30 | Cc1ccc(-c2cc(NC[C@@H](C)c3cccc4c3OC(CO)C4)ncn2)cn1 (single isomer, unassigned) [Compound 538]
9 | < 30 | Cc1ccc(-c2cc(NC[C@@H](C)c3ccnc4c3OCC4C)ncn2)cn1 (single isomer, unassigned) [Compound 576]
10 | < 30 | CCN1CCCC1CNc1ccc(-c2cc(NC[C@@H](C)c3cccc4c(C(=O)NC)ccnc34)ncn2)cn1 (single isomer, unassigned) [Compound 704]
11 | < 30 | CNC(=O)c1ccnc2c([C@H](C)CNc3cc(-c4ccc(N5CCOC(C)C5)nc4)ncn3)cccc12 (single isomer, unassigned) [Compound 713]
12 | < 30 | CNC(=O)c1ccnc2c([C@H](C)CNc3cc(-c4ccc(N5CCN6C(=O)OCC6C5)nc4)ncn3)cccc12 (single isomer, unassigned) [Compound 731]
13 | < 30 | COc1ccccc1CCNc1cc(-c2ccc3ncccc3c2)ncn1 [Compound 1]
14 | < 30 | COc1ccccc1CCNc1cc(-c2cnc3[nH]ccc3c2)ncn1 [Compound 8]
15 | < 30 | COc1ccccc1CCNc1cc(-c2ccc(C)nc2)ncn1 [Compound 11]
16 | < 30 | COc1ccccc1CCNc1cc(-c2ccc(N3CCN(C(C)=O)CC3)nc2)ncn1 [Compound 16]
17 | < 30 | CN1CCN(c2ccc(-c3cc(NCCc4cccc5c4OCC5)ncn3)cn2)CC1 [Compound 30]
18 | < 30 | COc1ccccc1[C@H](C)CNc1cc(-c2ccc(N3CCN(C)CC3)nc2)ncn1 [Compound 32, (S)—N-(2-(2-Methoxyphenyl)propyl)-6-(6-(4-methylpiperazin-1-yl)pyridin-3-yl)pyrimidin-4-amine]
19 | < 30 | COc1ccccc1CCNc1cc(-c2cnc3c(ccn3C)c2)ncn1 [Compound 34]
20 | < 30 | CCn1ccc2cc(-c3cc(NCCc4ccccc4OC)ncn3)cnc21 [Compound 35]
21 | < 30 | CCCn1ccc2cc(-c3cc(NCCc4ccccc4OC)ncn3)cnc21 [Compound 36]
22 | < 30 | COc1ccccc1CCNc1cc(-c2cnc3c(ccn3C(C)C)c2)ncn1 [Compound 37]
23 | < 30 | COCCn1ccc2cc(-c3cc(NCCc4ccccc4OC)ncn3)cnc21 [Compound 38]
24 | < 30 | COc1ccccc1CCNc1cc(-c2cnc3c(ccn3CC3CC3)c2)ncn1 [Compound 40]
25 | < 30 | COc1ccccc1CCNc1cc(-c2cnc3c(ccn3CC3CCOCC3)c2)ncn1 [Compound 41]
26 | < 30 | COc1ccccc1CCNc1cc(-c2cnc3c(cnn3C)c2)ncn1 [Compound 42]
27 | < 30 | COc1ccccc1CCNc1cc(-c2cnc3c(cnn3C(C)C)c2)ncn1 [Compound 44]
28 | < 30 | COc1ccccc1CCNc1cc(-c2cnc3c(cnn3CCC(C)C)c2)ncn1 [Compound 45]
29 | < 30 | COc1ccccc1CCNc1cc(-c2ccc(N3CCCC3)nc2)ncn1 [Compound 46]
